The supplement of paper PMC10307832

Key:
Assay in all cases: relative viability (nuclei count vs DMSO), 5 days (fraction); higher = more cells survive
BAM7 + Pictilisib = compound: CCOC1=CC=CC=C1N=NC2=C(NN(C2=O)C3=NC(=CS3)C4=CC=CC=C4)C [BAM7] + CS(=O)(=O)N1CCN(Cc2cc3nc(-c4cccc5[nH]ncc45)nc(N4CCOCC4)c3s2)CC1 [Pictilisib] (partner 1 µM)
Procedure, shortened: (§1)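 Nuclei were stained with Hoechst during a one-step fixation (final 0.05% Triton X-100, 1% formaldehyde, 1 ug/ml Hoechst) carried out 5 days after dosing, then counted on 4× images. The cells, lung cancer lines in 1536-well plates, had been dosed by pin tool the day after seeding with one drug alone or a fixed anchor-drug dose plus five library-drug doses (not always all listed) in √10 steps. Relative viability is the nuclei count in treated wells divided by that in vehicle wells, and each value is the median of duplicate plates.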

BAM7 + Tozasertib = compound: CCOC1=CC=CC=C1N=NC2=C(NN(C2=O)C3=NC(=CS3)C4=CC=CC=C4)C [BAM7] + Cc1cc(Nc2cc(N3CCN(C)CC3)nc(Sc3ccc(NC(=O)C4CC4)cc3)n2)n[nH]1 [Tozasertib] (partner 0.1 µM)
Procedure, shortened: as §1

BAM7 + Linsitinib = compound: CCOC1=CC=CC=C1N=NC2=C(NN(C2=O)C3=NC(=CS3)C4=CC=CC=C4)C [BAM7] + C[C@]1(O)C[C@@H](c2nc(-c3ccc4ccc(-c5ccccc5)nc4c3)c3c(N)nccn32)C1 [Linsitinib] (partner 1 µM)
Procedure, shortened: as §1

BAM7 + OSI-027 = compound: CCOC1=CC=CC=C1N=NC2=C(NN(C2=O)C3=NC(=CS3)C4=CC=CC=C4)C [BAM7] + COc1cccc2cc(-c3nc([C@H]4CC[C@H](C(=O)O)CC4)n4ncnc(N)c34)[nH]c12 [OSI-027] (partner 0.5 µM)
Procedure, shortened: as §1

BAM7 + Crizotinib = compound: CCOC1=CC=CC=C1N=NC2=C(NN(C2=O)C3=NC(=CS3)C4=CC=CC=C4)C [BAM7] + C[C@@H](Oc1cc(-c2cnn(C3CCNCC3)c2)cnc1N)c1c(Cl)ccc(F)c1Cl [Crizotinib] (partner 1 µM)
Procedure, shortened: as §1

Cell Line | relative viability (BAM7 + Pictilisib; first compound 0.5 µM) | relative viability (BAM7 + Pictilisib; first compound 5 µM) | relative viability (BAM7 + Pictilisib; first compound 15.81 µM) | relative viability (BAM7 + Pictilisib; first compound 50 µM) | relative viability (BAM7 + Tozasertib; first compound 0.5 µM) | relative viability (BAM7 + Tozasertib; first compound 5 µM) | relative viability (BAM7 + Tozasertib; first compound 15.81 µM) | relative viability (BAM7 + Tozasertib; first compound 50 µM) | relative viability (BAM7 + Linsitinib; first compound 0.5 µM) | relative viability (BAM7 + Linsitinib; first compound 5 µM) | relative viability (BAM7 + Linsitinib; first compound 15.81 µM) | relative viability (BAM7 + Linsitinib; first compound 50 µM) | relative viability (BAM7 + OSI-027; first compound 0.5 µM) | relative viability (BAM7 + OSI-027; first compound 5 µM) | relative viability (BAM7 + OSI-027; first compound 15.81 µM) | relative viability (BAM7 + OSI-027; first compound 50 µM) | relative viability (BAM7 + Crizotinib; first compound 0.5 µM) | relative viability (BAM7 + Crizotinib; first compound 5 µM) | relative viability (BAM7 + Crizotinib; first compound 15.81 µM) | relative viability (BAM7 + Crizotinib; first compound 50 µM)
HCC-44 | 0.593 | 0.65 | 0.534 | 0.634 | 0.94 | 0.711 | 0.785 | 0.878 | 0.717 | 0.67 | 0.62 | 0.689 | 0.534 | 0.61 | 0.476 | 0.505 | 0.883 | 0.907 | 0.749 | 0.787
HCC-78 | 0.178 | 0.177 | 0.213 | 0.245 | 0.428 | 0.371 | 0.446 | 0.393 | 0.544 | 0.393 | 0.376 | 0.585 | 0.39 | 0.372 | 0.423 | 0.384 | 0.339 | 0.334 | 0.324 | 0.308
HCC-366 | 0.163 | 0.163 | 0.141 | 0.0939 | 0.0637 | 0.0775 | 0.062 | 0.0627 | 0.67 | 0.501 | 0.583 | 0.677 | 0.879 | 0.839 | 0.729 | 0.784 | 0.552 | 0.654 | 0.471 | 0.641
HCC-827 | 0.969 | 0.908 | 0.877 | 0.977 | 0.405 | 0.433 | 0.395 | 0.388 | 0.957 | 0.912 | 0.905 | 0.881 | 0.798 | 0.794 | 0.775 | 0.822 | 0.917 | 0.873 | 0.932 | 0.839
HOP-62 | 0.664 | 0.729 | 0.742 | 0.799 | 0.417 | 0.413 | 0.337 | 0.308 | 1.09 | 1.23 | 0.904 | 0.756 | 0.888 | 0.87 | 0.808 | 0.92 | 0.931 | 1.02 | 0.83 | 0.854
IA-LM | 0.356 | 0.306 | 0.37 | 0.392 |  |  |  |  | 0.755 | 0.705 | 0.545 | 0.672 |  |  |  |  | 0.725 | 1.16 | 0.619 | 0.784
LC-2-ad | 0.581 | 0.222 | 0.383 | 0.427 | 0.501 | 0.424 | 0.466 | 0.451 | 0.856 | 0.898 | 0.812 | 0.783 | 0.918 | 0.865 | 0.8 | 0.902 | 0.488 | 0.518 | 0.46 | 0.463
LCLC-97TM1 | 0.218 | 0.197 | 0.172 | 0.2 | 0.207 | 0.442 | 0.261 | 0.172 | 0.174 | 0.184 | 0.176 | 0.179 | 0.699 | 0.469 | 0.505 | 0.677 | 0.305 | 0.386 | 0.245 | 0.332
NCI-H522 |  |  |  |  | 0.574 | 0.57 | 0.561 | 0.583 |  |  |  |  | 0.976 | 0.744 | 0.687 | 0.831 |  |  |  | 
NCI-H1299 | 0.675 | 0.779 | 0.782 | 0.824 |  |  |  |  | 1.02 | 1.14 | 1.02 | 0.936 |  |  |  |  | 0.98 | 1.01 | 1.01 | 0.946
NCI-H1395 | 0.612 | 0.714 | 0.702 | 0.683 | 0.701 | 1.01 | 0.806 | 0.771 | 1.02 | 1.07 | 1.03 | 1.2 | 0.684 | 0.67 | 0.704 | 0.97 |  |  |  | 
NCI-H1563 | 0.651 | 0.714 | 0.642 | 0.639 |  |  |  |  | 1.22 | 1.19 | 1.13 | 1.24 | 0.729 | 0.721 | 0.763 | 0.791 | 0.974 | 0.942 | 0.889 | 0.841
NCI-H1623 |  |  |  |  | 0.389 | 0.367 | 0.357 | 0.371 |  |  |  |  | 0.422 | 0.383 | 0.368 | 0.349 |  |  |  | 
NCI-H1648 |  |  |  |  | 0.565 | 0.356 |  | 0.434 |  |  |  |  | 0.275 | 0.282 |  | 0.283 |  |  |  | 
NCI-H1650 | 0.524 | 0.572 | 0.565 | 0.699 | 0.335 | 0.305 | 0.28 | 0.314 |  |  |  |  | 0.542 | 0.512 | 0.498 | 0.73 | 0.882 | 1.07 | 0.939 | 0.848
NCI-H1703 | 0.23 | 0.262 |  | 0.256 |  |  |  |  | 0.791 | 0.856 | 0.75 | 0.791 |  |  |  |  | 0.694 | 0.652 | 0.621 | 0.633
NCI-H1792 | 0.282 | 0.258 | 0.228 | 0.289 |  |  |  |  | 0.64 | 0.54 | 0.542 | 0.628 | 0.694 | 0.71 | 0.553 | 0.624 | 0.984 | 1.06 | 1.06 | 0.906
NCI-H1793 | 0.445 | 0.3 | 0.317 | 0.358 | 0.274 | 0.269 | 0.223 | 0.262 | 0.971 | 1.15 | 0.653 | 0.789 | 0.271 | 0.267 | 0.25 | 0.233 |  |  |  | 
NCI-H2170 | 0.268 | 0.3 | 0.271 | 0.314 | 0.664 | 0.748 | 0.501 | 0.793 |  |  |  |  | 0.688 | 0.592 | 0.635 | 0.72 | 1.12 | 1.07 | 0.873 | 0.989
NCI-H2342 |  |  |  |  | 0.453 | 0.519 | 0.387 | 0.374 |  |  |  |  | 0.584 | 0.587 | 0.604 | 0.566 |  |  |  | 
SW 900 |  |  |  |  | 0.48 | 0.556 | 0.475 | 0.562 |  |  |  |  | 0.194 | 0.539 | 0.545 | 0.609 |  |  |  | 
